# Experimental data: US7868043B2, “Mesophasic forms of (3S)-aminomethyl-5-methyl-hexanoic acid prodrugs and methods of use” (Xenoport, Inc., priority 2008, dated 2011)
# Test: Intracolonic bioavailability in monkeys
# Assay type: in vivo, Cynomologous monkeys
# Conditions: monkey, whole blood; bioavailability of pregabalin (F %, (SD)) after intracolonic administration, 10 mg-eq pregabalin/kg, suspension, 4 male monkeys, blood LC-MS/MS; salts before crystallization; read-out: Intracolonic Bioavailability Fic (%)
# Procedure: Male Cynomologous monkeys weighing about 2.3 kg were used in the studies. Monkeys were fasted overnight prior to the study until 4 hours after dosing. Water was provided ad libitum.
# Calcium (3S)-{[(1R)-isobutanoyloxyethoxy]carbonylaminomethyl}-5-methyl-hexanoate (5), calcium (3S)-{[(1S)-isobutanoyloxyisobutoxy]carbonylaminomethyl}-5-methyl-hexanoate (6), or calcium (3S)-{[(1R)-benzoyloxyethoxy]carbonylaminomethyl}-5-methyl-hexanoate (7) (obtained as described in Examples 4, 8, and 12, respectively, and before crystallization according to Examples 13, 14, and 15, respectively) were prepared as a suspension (21.4 mg/mL) in 0.5% methyl cellulose/0.1% Tween-80 in NaH2PO4 pH 7.02.
# Calcium (3S)-{[(1R)-isobutanoyloxyethoxy]carbonylaminomethyl}-5-methyl-hexanoate (5), calcium (3S)-{[(1S)-isobutanoyloxyisobutoxy]carbonylaminomethyl}-5-methyl-hexanoate (6), or calcium (3S)-{[(1R)-benzoyloxyethoxy]carbonylaminomethyl}-5-methyl-hexanoate (7) (1 mL/kg; 10 mg-eq pregabalin/kg) were administered intracolonically to 4 monkeys. […]
# Blood samples were analyzed by a sensitive and specific LC-MS/MS method for simultaneous determination of (3S)-{[(1R)-isobutanoyloxyethoxy]carbonylaminomethyl}-5-methyl-hexanoate, (3S)-{[(1S)-isobutanoyloxyisobutoxy]carbonylaminomethyl}-5-methyl-hexanoate, or (3S)-{[(1R)-benzoyloxyethoxy]carbonylaminomethyl}-5-methyl-hexanoate; and pregabalin. […]
compound,measurement,value
"CC(C)C[C@H](CN)CC(=O)O [Pregabalin, (3S)-aminomethyl-5-methyl-hexanoic acid]",bioavailability,4%
